Laboratory results reported in US12240846B2 (Enliven Inc., priority 2020, dated 2025).

How the values were obtained:
ABL1 = target: T1, ABL1 (Homo sapiens, UniProt P00519); experiment: Luminescence-based ABL kinase assay (300 μM ATP), ADP-Glo; type: biochemical
T1 construct: purchased Carna Biosciences
From the text: Compounds were serially diluted in DMSO. […] Luminescence signal positively correlates with kinase activity.

pCRKL in K562 cells = experiment: pCRKL ELISA assay in K562 cells; type: cell-based; conditions: Homo sapiens, 1.5 h, 90 minutes incubation, read-out: pCRKL ELISA, Cell Line IC50 (nM) K562
Protocol: (§1) K562 or Ba/F3 ABL T315I cells (2.0*10^5 cells/100 μl/well) were seeded in 96 well (Corning, cat #3799). Compounds were dissolved in DMSO, serially diluted in DMSO and then were added, mixed, and incubated for 90 minutes at 37° C., 5% CO2. Following the 90-minute incubation, plates were centrifuged for 5 min at 3000 RPM and supernatant was removed from each well. Cells were washed 3 times with 150 μl PBS prior to addition of 100 μl cell RIPA lysis buffer (Boston BioProducts, cat #BP-115D) supplied with 1× complete ULTRA cocktail inhibitor (Roche, 05892791001) and 1× PhosSTOP Phosphatase Inhibitor Cocktail Tablets (Roche, 04906837001). Cells were incubated with lysis buffer for 1 hour at 4° C. prior to storage at −80C.
(§2) A capture antibody able to detect phosphorylated and non-phosphorylated CRKL (R&D Systems, cat #AF5127) was added to Meso Scale Discovery (MSD) standard bind plates (MSD, cat #L15XA-3) at 5 ug/mL and incubated at 4° C. overnight. The next day, plates were washed with PBS+ 0.05% Tween20 (PBST) and 150 μl of 5% BSA blocking solution was added for 1 hour at room temperature with shaking. Plates were washed with PBST. Lysates were thawed and 30 μl of lysate was added to the MSD plates and incubated for 2 hours at room temperature with shaking. MSD plates were washed with PBST and 30 μl of a detection antibody that binds phosphorylated pCRKL (R&D Systems, cat #MAB6910) was added at 1 ug/mL to each well. Plates were incubated for 1 hour at room temperature with shaking. Plates were washed with PBST prior to addition of 30 μl of a sulfo tagged goat anti mouse detection antibody (MSD cat #R32AC-1). Plates were incubated for 1 hour at room temperature with shaking. Plates were washed with PBST prior to addition of 150 ul of 1×MSD read buffer T (MSD, cat #R92TC-2). Electrochemiluminescence (ECLU) was read on an MSD plate reader (Meso Scale Discovery). The remaining activity by calculated as follows: % Relative activity=100× (ELCUsample−ECLULC)/(ECLUHC−ECLULC). The low and high controls (LC/HC) are generated from lysate from wells without cells or with cells treated with 0.1% DMSO, respectively. IC50 values were calculated using XLFit software using a nonlinear regression model with a sigmoidal dose response and are shown in Table 4 and Table 5 below.

K562 cells = experiment: K562 cell proliferation assay (CellTiter-Glo); type: cell-based; conditions: Homo sapiens, K562 cell viability, 72 hours, read-out: Cell Line (IC50, nM) K562
[1] = test system: pCRKL in Ba/F3 ABL1 (T315I) cells; experiment: pCRKL ELISA assay in Ba/F3 ABL1 (T315I) cells; type: cell-based; conditions: Mus musculus, BaF3, 1.5 h, 90 minutes incubation, read-out: pCRKL ELISA, Cell Line IC50 (nM) Ba/F3 ABL1 (T315I)
Protocol: as §1, §2

ABL1 (T315I) = ABL1 (T315I) (Homo sapiens, UniProt P00519, T315I); experiment: Luminescence-based ABL kinase assay (300 μM ATP), ADP-Glo; type: biochemical
Protocol: Kinase activity of ABL1 was measured using the ADP-Glo system (Promega), which measures formation of ADP using a luminescence-based method. Compounds were serially diluted in DMSO. 20 nL of compound or DMSO only (high control, HC) were added to a 384-well plate (OptiPlate-384. PerkinElmer) using an Echo550 liquid handler (Labcyte). 15 μL of kinase solution (10 mM MgCl2, 0.01% Brij-35, 2 mM DTT, 0.05% BSA, 1 mM EGTA, 50 mM HEPES pH 7.5, and 3.325 nM ABL1 [Carna Biosciences]) were added to each well of the 384-well plate containing the compounds. No enzyme control wells were included (low control, LC). The plate was incubated at room temperature for 30 minutes. 5 μL of a second solution containing 10 mM MgCl2, 0.01% Brij-35, 2 mM DTT, 0.05% BSA, 1 mM EGTA, 50 mM HEPES pH 7.5, 6 μM Peptide 2 (Perkin Elmer, Cat No 760346), and 1.2 mM ATP were added to each well to start the kinase reaction. The plate was incubated for 90 minutes at room temperature. 20 μL of ADP-Glo reagent (Promega) were then added to each well and the plate was incubated for 40 minutes at room temperature. 40 μL of kinase detection reagent (Promega) was added to each well and the plate was incubated for an additional 45 minutes at room temperature. During this step, ADP was converted to ATP, a substrate for luciferase, to produce luminescence signal. Luminescence was measured on an Envision plate reader (Perkin Elmer). Luminescence signal positively correlates with kinase activity. The percent kinase activity was calculated as follows: percent kinase activity=100×(Lumsample−LumLC)/(LumHC−LumLC). As noted above, DMSO only and no enzyme wells were used as high and low controls, respectively. IC50 values were calculated using the XLFit software.

HL60 cells = experiment: HL60 cell proliferation assay (CellTiter-Glo); type: cell-based; conditions: Homo sapiens, HL-60, HL60 cell viability, 72 hours, read-out: Cell Line (IC50, nM) HL60

IC50 (ABL1) [nM]	IC50 (pCRKL in K562 cells) [nM]	IC50 (K562 cells) [nM]	IC50 [1] [nM]	IC50 (ABL1 (T315I)) [nM]	IC50 (HL60 cells) [nM]	SMILES
36	96.4	33.6	263	71.8	3780	COc1ncnc(OC)c1-c1cc2cc(NC(=O)[C@@H]3C[C@@H]3F)ncc2n1C [Compound 39, (1S,2S)-N-[2-(4,6-dimethoxypyrimidin-5-yl)-1-methylpyrrolo[2,3-c]pyridin-5-yl]-2-fluorocyclopropane-1-carboxamide]
51.3	416	109	–	4.23	1200	COc1ccccc1-c1c(C)c2cnc(NC(=O)[C@@H]3C[C@@H]3F)cc2n1C [Compound 52, (1S,2S)-2-fluoro-N-(2-(2-methoxyphenyl)-1,3-dimethyl-1H-pyrrolo[3,2-c]pyridin-6-yl)cyclopropane-1-carboxamide]
11.6	99.4	63	253	38.8	605	COc1cc(C)nc(OC)c1-c1cc2cc(NC(=O)[C@@H]3C[C@@H]3F)ncc2n1C [Compound 98, (1S,2S)-N-(2-(2,4-dimethoxy-6-methylpyridin-3-yl)-1-methyl-1H-pyrrolo[2,3-c]pyridin-5-yl)-2-fluorocyclopropane-1-carboxamide]
12.7	66.3	47.8	–	43.5	3550	[2H]C([2H])([2H])Oc1ncnc(OC([2H])([2H])[2H])c1-c1cc2cc(NC(=O)[C@@H]3C[C@@H]3F)ncc2n1C [Compound 95, (1S,2S)-N-(2-(4,6-bis(methoxy-d3)pyrimidin-5-yl)-1-methyl-1H-pyrrolo[2,3-c]pyridin-5-yl)-2-fluorocyclopropane-1-carboxamide]
11.3	73.2	27.5	248	23.9	1350	COc1ncc(F)c(OC)c1-c1cc2cc(NC(=O)[C@@H]3C[C@@H]3F)ncc2n1C [Compound 38, (1S,2S)-2-fluoro-N-[2-(5-fluoro-2,4-dimethoxypyridin-3-yl)-1-methylpyrrolo[2,3-c]pyridin-5-yl]cyclopropane-1-carboxamide]
46.7	326	200	194	55.4	6240	COc1ncc(F)cc1-c1cc2cc(NC(=O)[C@@H]3C[C@@H]3F)ncc2n1C [Compound 76, (1S,2S)-2-fluoro-N-[2-(5-fluoro-2-methoxypyridin-3-yl)-1-methylpyrrolo[2,3-c]pyridin-5-yl]cyclopropane-1-carboxamide]
37.1	137	38.7	1140	54.7	3130	COc1nc(C)nc(OC)c1-c1cc2cc(NC(=O)[C@@H]3C[C@@H]3F)ncc2n1C [Compound 72, (1S,2S)-N-[2-(4,6-dimethoxy-2-methylpyrimidin-5-yl)-1-methylpyrrolo[2,3-c]pyridin-5-yl]-2-fluorocyclopropane-1-carboxamide]
3.98	35.5	17.7	172	7.85	385	COc1nc(N)nc(OC)c1-c1cc2cc(NC(=O)[C@@H]3C[C@@H]3F)ncc2n1C [Compound 103, (1S,2S)-N-(2-(2-amino-4,6-dimethoxypyrimidin-5-yl)-1-methyl-1H-pyrrolo[2,3-c]pyridin-5-yl)-2-fluorocyclopropane-1-carboxamide]

More lines, now with the values behind:

SMILES	IC50 (ABL1) [nM]	IC50 (pCRKL in K562 cells) [nM]	IC50 (K562 cells) [nM]	IC50 [1] [nM]	IC50 (ABL1 (T315I)) [nM]	IC50 (HL60 cells) [nM]
COc1ncc(F)c(OC)c1-c1cc2cc(NC(=O)[C@H]3C[C@@H]3CN3CCN(C)CC3)ncc2n1C (single isomer, unassigned) [Compound 128]	13.4	61.8	28.6	171	12.9	> 10000
COc1ccnc(OC)c1-c1cc2cc(NC(=O)[C@@H]3C[C@@H]3F)ncc2n1C [Compound 75, (1S,2S)-N-[2-(2,4-dimethoxypyridin-3-yl)-1-methylpyrrolo[2,3-c]pyridin-5-yl]-2-fluorocyclopropane-1-carboxamide]	8.65	45.3	11.6	93.2	13.6	682
COc1ncccc1-c1cc2cc(NC(=O)[C@@H]3C[C@@H]3F)ncc2n1C [Compound 35, (1S,2S)-2-fluoro-N-[2-(2-methoxypyridin-3-yl)-1-methylpyrrolo[2,3-c]pyridin-5-yl]cyclopropane-1-carboxamide]	39.7	241	123	329	79.6	4150
Cn1c(-c2cccc3c2CCN3)cc2cc(NC(=O)[C@@H]3C[C@@H]3F)ncc21 [Compound 31, (1S,2S)-N-[2-(2,3-dihydro-1H-indol-4-yl)-1-methylpyrrolo[2,3-c]pyridin-5-yl]-2-fluorocyclopropane-1-carboxamide]	10.7	83.2	143	–	9.48	514
COc1ccccc1-c1cc2cc(NC(=O)NCCN3CCN(C)CC3)ncc2n1C [Compound 79, 3-[2-(2-methoxyphenyl)-1-methylpyrrolo[2,3-c]pyridin-5-yl]-1-[2-(4-methylpiperazin-1-yl)ethyl]urea]	79.2	594	329	–	77	> 10000
COc1cccc(F)c1-c1c(C)c2cnc(NC(=O)[C@@H]3C[C@@H]3F)cc2n1C [Compound 54, (1S,2S)-2-fluoro-N-(2-(2-fluoro-6-methoxyphenyl)-1,3-dimethyl-1H-pyrrolo[3,2-c]pyridin-6-yl)cyclopropane-1-carboxamide]	51.9	151	51.1	–	6.51	957
[2H]C([2H])([2H])Oc1ncccc1-c1cc2cc(NC(=O)[C@@H]3C[C@@H]3F)ncc2n1C [Compound 32, (1S,2S)-2-fluoro-N-(2-(2-(methoxy-d3)pyridin-3-yl)-1-methyl-1H-pyrrolo[2,3-c]pyridin-5-yl)cyclopropane-1-carboxamide]	28.6	189	182	–	83.1	5120
